This experiment concerns the target T1, CFTR (Homo sapiens, UniProt P13569).
T1 construct: results in the phosphorylation and opening of CFTR anion channels; host or cells: Human colonic T84 cells
As to the kind of experiment: T84 assay (FLIPR membrane potential dye, forskolin/IBMX-stimulated CFTR channel activity). The format is cell-based. The conditions noted are these: human colonic T84 cells, average of at least 2 runs unless annotated n = 1. Here is the method: (§1) For example, Human colonic T84 cells can be acquired from the European Collection of Cell Cultures (ECACC) and grown in standard culture conditions as described by the supplier. On the day before assay 25,000 T84 cells per well are plated into standard black walled, clear bottom 384-well assay plates in standard growth medium consisting of DMEM:F12 with 10% FBS and incubated overnight. On the day of the assay the plates are washed using a standard assay buffer (HBSS with 10 mM Hepes) and incubated for 15 minutes in serum free cell culture medium before the addition of a commercially available membrane potential sensitive fluorescent dye (FLIPR Red membrane potential dye, Molecular Devices Corporation). T84 cells are incubated with the FLIPR Red membrane potential dye for 45 minutes in the presence and absence of test compound before being transferred to a commercially available fluorescence imaging plate reader (FLIPR384, Molecular Devices Corporation). Fluorescence levels are monitored continuously every second for 150 seconds; after an initial 10 second baseline, CFTR channel activity is stimulated through the addition of 10 μM forskolin in the presence of 100 μM of the phosphodiesterase inhibitor iso-butyl-methylxanthine (IBMX). Addition of the forskolin leads to the activation of intracellular adenylyl cylase 1, elevating cAMP levels and results in the phosphorylation and opening of CFTR anion channels. CFTR channel opening causes chloride ion efflux and subsequent depolarization of the cells, which is measured by an increase in fluorescence. CFTR inihibitor compounds prevent cell depolarization and the associated increase in fluorescence.
as §1, with “Human colonic” for “For example, Human colonic”, “T84 cells are acquired from” for “T84 cells can be acquired from”, “(ECACC) and are grown in” for “(ECACC) and grown in”, “fluorescence. CFTR inhibitor compounds prevent” for “fluorescence. CFTR inihibitor compounds prevent”

Each structure is given as a SMILES string.

20 molecules from patent publication US20090264471A1, “Compounds, Compositions and Methods Comprising Triazole Derivatives” (Institute for OneWorld Health, priority 2008, published 2009) can be followed below.

T1 sequence (P13569 whole entry): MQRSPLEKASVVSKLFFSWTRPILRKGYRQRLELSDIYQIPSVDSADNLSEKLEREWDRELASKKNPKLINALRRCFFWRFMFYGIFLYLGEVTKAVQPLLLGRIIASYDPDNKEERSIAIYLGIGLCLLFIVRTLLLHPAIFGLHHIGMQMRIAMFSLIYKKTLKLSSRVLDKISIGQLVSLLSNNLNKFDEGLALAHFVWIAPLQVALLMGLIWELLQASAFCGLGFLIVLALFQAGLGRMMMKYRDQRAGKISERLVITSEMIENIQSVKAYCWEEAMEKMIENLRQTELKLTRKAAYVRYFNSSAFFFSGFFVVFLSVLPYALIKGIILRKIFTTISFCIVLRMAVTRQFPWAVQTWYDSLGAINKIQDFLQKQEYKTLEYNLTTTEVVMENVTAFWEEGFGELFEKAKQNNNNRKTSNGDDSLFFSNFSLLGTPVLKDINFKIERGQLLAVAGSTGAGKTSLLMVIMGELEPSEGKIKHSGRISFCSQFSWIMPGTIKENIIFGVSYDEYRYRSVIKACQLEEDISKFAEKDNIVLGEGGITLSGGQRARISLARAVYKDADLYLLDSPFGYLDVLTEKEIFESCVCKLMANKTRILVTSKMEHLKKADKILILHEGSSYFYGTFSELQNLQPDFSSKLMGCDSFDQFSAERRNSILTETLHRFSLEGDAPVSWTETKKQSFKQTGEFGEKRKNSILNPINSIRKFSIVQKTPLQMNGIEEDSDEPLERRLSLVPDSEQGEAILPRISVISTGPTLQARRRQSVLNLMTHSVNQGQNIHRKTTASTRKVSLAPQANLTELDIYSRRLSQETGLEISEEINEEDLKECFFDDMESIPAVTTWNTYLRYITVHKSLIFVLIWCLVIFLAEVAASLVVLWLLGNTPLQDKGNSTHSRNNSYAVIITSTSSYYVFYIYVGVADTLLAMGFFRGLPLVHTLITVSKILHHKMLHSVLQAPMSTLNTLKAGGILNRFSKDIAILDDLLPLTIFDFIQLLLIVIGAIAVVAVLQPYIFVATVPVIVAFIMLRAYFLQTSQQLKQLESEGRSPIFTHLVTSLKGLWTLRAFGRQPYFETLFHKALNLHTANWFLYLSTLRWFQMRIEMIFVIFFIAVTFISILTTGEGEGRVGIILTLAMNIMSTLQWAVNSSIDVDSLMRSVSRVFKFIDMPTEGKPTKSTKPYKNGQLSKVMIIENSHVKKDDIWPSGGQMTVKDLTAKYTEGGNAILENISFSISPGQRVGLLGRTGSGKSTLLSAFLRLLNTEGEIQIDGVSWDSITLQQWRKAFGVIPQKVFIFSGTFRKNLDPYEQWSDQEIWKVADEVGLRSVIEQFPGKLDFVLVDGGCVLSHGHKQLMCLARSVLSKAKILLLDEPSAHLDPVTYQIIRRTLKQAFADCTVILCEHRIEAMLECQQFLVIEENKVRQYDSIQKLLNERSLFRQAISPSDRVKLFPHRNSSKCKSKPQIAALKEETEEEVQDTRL

For orientation: IC50 means the concentration that gives 50% inhibition. A higher IC50 goes with weaker potency. `O=C(NC(c1ccccc1)c1ccccc1)c1nc(-c2cc(Br)c(O)c(Br)c2)n[nH]1` [Compound 78, N-benzhydryl-3-(3,5-dibromo-4-hydroxyphenyl)-1H-1,2,4-triazole-5-carboxamide] showed an IC50 of 3.23 µM. This counts as single-digit micromolar.
Next, `O=C(c1nc(-c2cc(Br)c(O)c(Br)c2)n[nH]1)N1CCN(c2cccc(C(F)(F)F)c2)CC1` [Compound 79, (3-(3,5-dibromo-4-hydroxyphenyl)-1H-1,2,4-triazol-5-yl)(4-(3-(trifluoromethyl)phenyl)piperazin-1-yl)methanone]: 6.93 µM.
The same measure for `O=C(c1nc(-c2cc(Br)c(O)c(Br)c2)n[nH]1)N1CCC(Cc2ccccc2)CC1` [Compound 80, (4-Benzylpiperidin-1-yl)(3-(3,5-dibromo-4-hydroxyphenyl)-1H-1,2,4-triazol-5-yl)methanone]: 10.5 µM; for `O=C(NCc1ccc(Oc2ccccc2)cc1)c1nc(-c2cc(Br)c(O)c(Br)c2)n[nH]1` [Compound 81, 3-(3,5-dibromo-4-hydroxyphenyl)-N-(4-phenoxybenzyl)-1H-1,2,4-triazole-5-carboxamide]: 1.51 µM; for `O=C(c1n[nH]c(-c2cc(Cl)c(O)c(Cl)c2)n1)N1CCC(Cc2ccccc2)CC1` [Compound 82, (4-benzylpiperidin-1-yl)(5-(3,5-dichloro-4-hydroxyphenyl)-1H-1,2,4-triazol-3-yl)methanone]: 7.05 µM.
The same measure for `O=C(c1n[nH]c(-c2cc(Cl)c(O)c(Cl)c2)n1)N1CCN(c2cccc(C(F)(F)F)c2)CC1` [Compound 83, (5-(3,5-dichloro-4-hydroxyphenyl)-1H-1,2,4-triazol-3-yl)(4-(3-(trifluoromethyl)phenyl)piperazin-1-yl)methanone]: 6.9 µM; for `O=C(NCc1ccc(F)c(F)c1)c1n[nH]c(-c2cc(Cl)c(O)c(Cl)c2)n1` [Compound 84, 5-(3,5-dichloro-4-hydroxyphenyl)-N-(3,4-difluorobenzyl)-1H-1,2,4-triazole-3-carboxamide]: 15.6 µM; for `O=C(NCc1ccccc1C(F)(F)F)c1n[nH]c(-c2cc(Cl)c(O)c(Cl)c2)n1` [Compound 85, 5-(3,5-dichloro-4-hydroxyphenyl)-N-(2-(trifluoromethyl)benzyl)-1H-1,2,4-triazole-3-carboxamide]: 18 µM.
`O=C(NCc1cccc(OC(F)(F)F)c1)c1n[nH]c(-c2cc(Cl)c(O)c(Cl)c2)n1` [Compound 86, 5-(3,5-dichloro-4-hydroxyphenyl)-N-(3-(trifluoromethoxy)benzyl)-1H-1,2,4-triazole-3-carboxamide] displayed an IC50 of 22.2 µM.
Next, `O=C(NCc1ccc(C(F)(F)F)cc1)c1n[nH]c(-c2cc(Cl)c(O)c(Cl)c2)n1` [Compound 87, 5-(3,5-dichloro-4-hydroxyphenyl)-N-(4-(trifluoromethyl)benzyl)-1H-1,2,4-triazole-3-carboxamide]: 25.1 µM; `O=C(NC(c1ccccc1)c1ccccc1)c1n[nH]c(-c2cc(Cl)c(O)c(Cl)c2)n1` [Compound 88, N-benzhydryl-5-(3,5-dichloro-4-hydroxyphenyl)-1H-1,2,4-triazole-3-carboxamide]: 7.33 µM.
The same measure for `O=C(NCc1cc(F)c(F)c(F)c1)c1n[nH]c(-c2cc(Cl)c(O)c(Cl)c2)n1` [Compound 89, 5-(3,5-dichloro-4-hydroxyphenyl)-N-(3,4,5-trifluorobenzyl)-1H-1,2,4-triazole-3-carboxamide]: 5.25 µM; for `CN(Cc1cccc(C(F)(F)F)c1)C(=O)c1n[nH]c(-c2cc(Cl)c(O)c(Cl)c2)n1` [Compound 90, 5-(3,5-dichloro-4-hydroxyphenyl)-N-methyl-N-(3-(trifluoromethyl)benzyl)-1H-1,2,4-triazole-3-carboxamide]: 24.1 µM; for `O=C(NCc1ccc(Cl)c(Cl)c1)c1n[nH]c(-c2cc(Cl)c(O)c(Cl)c2)n1` [Compound 91, 5-(3,5-dichloro-4-hydroxyphenyl)-N-(3,4-dichlorobenzyl)-1H-1,2,4-triazole-3-carboxamide]: 1.57 µM.
Next, `O=C(NCc1ccc(Oc2ccccc2)cc1)c1n[nH]c(-c2cc(Cl)c(O)c(Cl)c2)n1` [Compound 92, 5-(3,5-dichloro-4-hydroxyphenyl)-N-(4-phenoxybenzyl)-1H-1,2,4-triazole-3-carboxamide]: 3.28 µM; `CN(Cc1ccc(Cl)cc1)C(=O)c1n[nH]c(-c2cc(Cl)c(O)c(Cl)c2)n1` [Compound 93, N-(4-chlorobenzyl)-5-(3,5-dichloro-4-hydroxyphenyl)-N-methyl-1H-1,2,4-triazole-3-carboxamide]: 25 µM; `O=C(NCc1ccc(OC(F)(F)F)cc1)c1n[nH]c(-c2cc(Cl)c(O)c(Cl)c2)n1` [Compound 94, 5-(3,5-dichloro-4-hydroxyphenyl)-N-(4-(trifluoromethoxy)benzyl)-1H-1,2,4-triazole-3-carboxamide]: 9.11 µM.
In turn, `CN(Cc1ccc(Cl)c(Cl)c1)C(=O)c1n[nH]c(-c2cc(Cl)c(O)c(Cl)c2)n1` [Compound 95, 5-(3,5-Dichloro-4-hydroxyphenyl)-N-(3,4-dichlorobenzyl)-N-methyl-1H-1,2,4-triazole-3-carboxamide] had an IC50 of 7.92 µM.
The same measure for `CN(Cc1ccc(C(C)(C)C)cc1)C(=O)c1n[nH]c(-c2cc(Cl)c(O)c(Cl)c2)n1` [Compound 96, N-(4-tert-butylbenzyl)-5-(3,5-dichloro-4-hydroxyphenyl)-N-methyl-1H-1,2,4-triazole-3-carboxamide]: 7.53 µM; for `O=C(NCc1cc(Cl)cc(Cl)c1)c1n[nH]c(-c2cc(Cl)c(O)c(Cl)c2)n1` [Compound 97, 5-(3,5-dichloro-4-hydroxyphenyl)-N-(3,5-dichlorobenzyl)-1H-1,2,4-triazole-3-carboxamide]: 6.8 µM.
